From patent US7728132B2, “Compositions for stabilizing chlorinated water to sunlight decomposition, and methods of preparation thereof” (Enviro Tech Chemical Services, Inc., priority 2007, dated 2010)

Legend:
[1] = Dispensing and dissolution of product in swimming pool; assay type: physicochemical; details: 5.85 lb dry solid in 20,000 gallon pool, recirculation pump running
Procedure: The gallon jugs of Examples 2 and 4 were taken to a residential swimming pool of 20,000 gallons estimated volume. The water temperature was 76° F. The sample of Example 2 was mildly shaken and then using a single motion, poured into the 8 foot deep end of the pool near the return pipe from the pump where the turbulence was high. […] Next the gallon jug of Example 4 was emptied into the pool in the same vicinity and same manner. […] The jug was rinsed clean with two aliquots of pool water.
Cyanuric acid wetcake (1405 lb) containing 66% solids is introduced to a 50 cubic foot stainless steel ribbon blender powered by dual 15 HP motors. Soft water (43.9 lb) is added while mixing in the blender. With further blending, solid sodium hydroxide microbeads (288.3 lb) are introduced over a three-minute period. The mixture becomes very hot as evidenced by the large amount of steam that escapes the reaction mixture into the atmosphere. The outside skin of the ribbon blender becomes too hot to touch and a temperature of 130° F. is measured with a digital infrared thermometer. […]
A one-gallon jug of Instant Pool Water Conditioner (Natural Chemistry Inc. of Norwalk, Conn.) was purchased from a local pool store. […] Using a pool brush, the undissolved material was readily dispersed and dissolved with a sweeping action. […]

[2] = granules in pool water; cited from earlier work
[3] = as reported for prior-art products; cited from earlier work

## O=c1[n-]c(=O)[nH]c(=O)[nH]1.[Na+] [Prospective Example 8, monosodium cyanurate]
[1]
  time until all is dissolved: ≤ 30 min

## O=c1[nH]c(=O)[nH]c(=O)[nH]1 [cyanuric acid]
[2]
  time to dissolve: several days

## O=c1[n-]c(=O)[nH]c(=O)[nH]1.[Na+] [monosodium cyanurate]
[3]
  pH: neutral
